Results: patent US20110040086A1, “Novel Beta-Lactam Antibiotics, Methods for Their Production, and Their Use” (DRITTE PATENTPORTFOLIO BETEILIGUNGSGESELLSCHAFT MB, priority 2007, published 2011)

Experiments:
[1] = test system: S. epidermidis 1068; assay: agar diffusion test (Test System II, multi-resistant germs); format: cell-based, Staphylococcus epidermidis; set-up: key: r = resistant (no detectable zone of inhibition)
Description: (§1) The test substances are deposited in stepped quantities (10 μg, 50 μg, 100 μg) onto active ingredient carriers (sensi-discs). For this purpose, the test substances are dissolved in methanol or A. dest. according to their solubility. Each inoculated plate is fitted with 3 test sheets.
(§2) Test System II (Effect Against Multi-Resistant Germs)
(§3) For this purpose, bacteria is cultivated on Müller-Hinton-Agar II plates.
(§4) With 1-1.5 ml physiological saline solution, a bacteria suspension of McFarland 0.5 (corresponds to a bacteria density of 150×10^6 germs) is produced. Then, with a sterile glass rod, a small drop of bacteria suspension is placed on the Müller-Hinton-Agar plate and coated in three layers (vertical, horizontal, and transverse). Thereafter, the sensi-discs with the novel semi-synthetic test substances are placed on top. The fitted plates are incubated for 18-20 hours at 37° C. After incubation, the diameters of the zones of inhibition are read as a measure for the antimicrobial activity of the novel semi-synthetic test substances.

[2] = test system: S. epidermidis 563; assay: as above; format: cell-based, Staphylococcus epidermidis; set-up: key: r = resistant (no detectable zone of inhibition)
Description: as §1, §2, §3, §4

[3] = test system: S. epidermidis 1071; assay: as above; format: cell-based, Staphylococcus epidermidis; set-up: key: r = resistant (no detectable zone of inhibition)
Description: as §1, §2, §3, §4

[4] = test system: S. epidermidis 847; assay: as above; format: cell-based, Staphylococcus epidermidis; set-up: key: r = resistant (no detectable zone of inhibition)
Description: as §1, §2, §3, §4

[5] = test system: Escherichia coli SBUG 1135; assay: agar diffusion test (Test System 1, antimicrobial effect); format: cell-based; set-up: key: r = resistant (no detectable zone of inhibition)
Description: (§5) Test System 1 (Antimicrobial Effect)
(§6) The test germs Escherichia coli SBUG 1135 and Bacillus megaterium SBUG 1152 are drawn overnight (17 hours at 37° C.) in 5 ml nutrient medium II. The incubation is performed in a shaking incubator (INFORS AG CH 4103, Bottmingen, Switzerland) at a shaking frequency of 180 rpm.
(§7) After 17 h incubation time, Escherichia coli has reached a cell density of ca. 2.4×10^10 cells/ml and Bacillus megaterium a cell density of ca. 2.1×10^8 cells/ml.
(§8) The seeding of bacteria in agar is selected so that, dense, but not confluent individual colonies develop after the incubation.
Escherichia coli: the ÜN is diluted 1:100 with physiological saline solution, of which 0.1 ml is converted into 10 ml nutrient agar. That corresponds to a cell count of 10^6.
(§9) The inoculated nutrient agar is set in sterile Petri dishes and left standing for a few minutes for drying.
as §1
(§10) After a 20-hour incubation time at 37° C., the zones of inhibition around the individual test sheets could be measured. The diameter of the zone of inhibition is specified in mm.

[6] = test system: E. faecalis 945; assay: agar diffusion test (Test System II, multi-resistant germs); format: cell-based, Enterococcus faecalis; set-up: key: r = resistant (no detectable zone of inhibition)
Description: as §1, §2, §3, §4

[7] = test system: S. aureus 520; assay: as above; format: cell-based, Staphylococcus aureus; set-up: key: r = resistant (no detectable zone of inhibition)
Description: as §1, §2, §3, §4

[8] = test system: S. aureus North Germany strain; assay: as above; format: cell-based, Staphylococcus aureus; set-up: key: r = resistant (no detectable zone of inhibition)
Description: as §1, §2, §3, §4

[9] = test system: S. aureus 36881; assay: as above; format: cell-based, Staphylococcus aureus; set-up: key: r = resistant (no detectable zone of inhibition)
Description: as §1, §2, §3, §4

[10] = test system: S. aureus 33490; assay: as above; format: cell-based, Staphylococcus aureus; set-up: key: r = resistant (no detectable zone of inhibition)
Description: as §1, §2, §3, §4

[11] = test system: S. aureus 526; assay: as above; format: cell-based, Staphylococcus aureus; set-up: key: r = resistant (no detectable zone of inhibition)
Description: as §1, §2, §3, §4

[12] = test system: S. aureus 39105; assay: as above; format: cell-based, Staphylococcus aureus; set-up: key: r = resistant (no detectable zone of inhibition)
Description: as §1, §2, §3, §4

[13] = test system: S. aureus 34289; assay: as above; format: cell-based, Staphylococcus aureus; set-up: key: r = resistant (no detectable zone of inhibition)
Description: as §1, §2, §3, §4

[14] = test system: B. subtilis AWD 166; assay: agar diffusion test (antimicrobial effect); format: cell-based, Bacillus subtilis
Description: as §8, §9, §1, §10

[15] = test system: S. epidermidis 125; assay: agar diffusion test (Test System II, multi-resistant germs); format: cell-based, Staphylococcus epidermidis
Description: as §1, §2, §3, §4

[16] = test system: S. aureus 38418; assay: as above; format: cell-based, Staphylococcus aureus
Description: as §1, §2, §3, §4

[17] = test system: S. aureus ATCC 6538; assay: as above; format: cell-based, Staphylococcus aureus
Description: as §1, §2, §3, §4

[18] = test system: Bacillus megaterium SBUG 1152; assay: agar diffusion test (Test System 1, antimicrobial effect); format: cell-based
Description: as §5, §6, §7, §8
Bacillus megaterium: 0.1 ml of non-diluted overnight culture (ÜN) in 10 ml nutrient agar corresponds to a cell count of 10^6.
as §9, §1, §10

[19] = test system: Staphylococcus aureus 315; assay: agar diffusion test (Test System II, multi-resistant germs); format: cell-based; set-up: key: r = resistant (no detectable zone of inhibition)
Description: as §1, §2, §3, §4

[20] = test system: Enterococcus faecalis 769; assay: as above; format: cell-based; set-up: key: r = resistant (no detectable zone of inhibition)
Description: as §1, §2, §3, §4

## COC(=O)C1=C(NC(C(=O)NC2C(=O)N3C(C(=O)O)=C(C)CSC23)c2ccc(O)cc2)C(=O)C=CC1=O (stereo not drawn) [1c, 7-[2-(4-hydroxyphenyl)-2-(2-methoxycarbonyl-3,6-dioxocyclohexa-1,4-dienylamino)-acetylamino]-desacetoxycephalosporanic acid]
[1]; Quantity n 0.019
  Diameter of zone of inhibition: r
[1]; Quantity n 0.1
  Diameter of zone of inhibition: 14 mm
[1]; Quantity n 0.19
  Diameter of zone of inhibition: 20 mm
[2]; Quantity n 0.019
  Diameter of zone of inhibition: r
[2]; Quantity n 0.1
  Diameter of zone of inhibition: 14 mm
[2]; Quantity n 0.19
  Diameter of zone of inhibition: 20 mm
[3]; Quantity n 0.019
  Diameter of zone of inhibition: r
[3]; Quantity n 0.1
  Diameter of zone of inhibition: 14 mm
[3]; Quantity n 0.19
  Diameter of zone of inhibition: 20 mm
[4]; Quantity n [mol] 0.019
  Diameter of zone of inhibition: r
[4]; Quantity n [mol] 0.1
  Diameter of zone of inhibition: 14 mm
[4]; Quantity n [mol] 0.19
  Diameter of zone of inhibition: 18 mm
[5]; Quantity n 0.019
  Diameter of zone of inhibition: r
[5]; Quantity n 0.1
  Diameter of zone of inhibition: 14 mm
[5]; Quantity n 0.19
  Diameter of zone of inhibition: 18 mm
[6]; Quantity n 0.019
  Diameter of zone of inhibition: r
[6]; Quantity n 0.1
  Diameter of zone of inhibition: r
[6]; Quantity n 0.19
  Diameter of zone of inhibition: r
[7]; Quantity n [mol] 0.019
  Diameter of zone of inhibition: r
[7]; Quantity n [mol] 0.1
  Diameter of zone of inhibition: r
[7]; Quantity n [mol] 0.19
  Diameter of zone of inhibition: r
[8]; Quantity n 0.019
  Diameter of zone of inhibition: r
[8]; Quantity n 0.1
  Diameter of zone of inhibition: 10 mm
[8]; Quantity n 0.19
  Diameter of zone of inhibition: 14 mm
[9]; Quantity n 0.019
  Diameter of zone of inhibition: r
[9]; Quantity n 0.1
  Diameter of zone of inhibition: r
[9]; Quantity n 0.19
  Diameter of zone of inhibition: 14 mm
[10]; Quantity n [μmol] 0.019
  Diameter of zone of inhibition: r
[10]; Quantity n [μmol] 0.1
  Diameter of zone of inhibition: 14 mm
[10]; Quantity n [μmol] 0.19
  Diameter of zone of inhibition: 20 mm
[11]; Quantity n 0.019
  Diameter of zone of inhibition: r
[11]; Quantity n 0.1
  Diameter of zone of inhibition: r
[11]; Quantity n 0.19
  Diameter of zone of inhibition: r
[12]; Quantity n 0.019
  Diameter of zone of inhibition: r
[12]; Quantity n 0.1
  Diameter of zone of inhibition: r
[12]; Quantity n 0.19
  Diameter of zone of inhibition: 12 mm
[13]; Quantity n [mol] 0.019
  Diameter of zone of inhibition: r
[13]; Quantity n [mol] 0.1
  Diameter of zone of inhibition: r
[13]; Quantity n [mol] 0.19
  Diameter of zone of inhibition: r
[14]; Quantity n 0.019
  Diameter of zone of inhibition: 22 mm
[14]; Quantity n 0.1
  Diameter of zone of inhibition: 30 mm
[14]; Quantity n 0.19
  Diameter of zone of inhibition: 32 mm
[15]; Quantity n 0.019
  Diameter of zone of inhibition: 12 mm
[15]; Quantity n 0.1
  Diameter of zone of inhibition: 24 mm
[15]; Quantity n 0.19
  Diameter of zone of inhibition: 28 mm
[16]; Quantity n [mol] 0.019
  Diameter of zone of inhibition: 10 mm
[16]; Quantity n [mol] 0.1
  Diameter of zone of inhibition: 22 mm
[16]; Quantity n [mol] 0.19
  Diameter of zone of inhibition: 28 mm
[17]; Quantity n 0.019
  Diameter of zone of inhibition: 18 mm
[17]; Quantity n 0.1
  Diameter of zone of inhibition: 26 mm
[17]; Quantity n 0.19
  Diameter of zone of inhibition: 30 mm
[18]; Quantity n 0.019
  Diameter of zone of inhibition: 22 mm
[18]; Quantity n 0.1
  Diameter of zone of inhibition: 30 mm
[18]; Quantity n 0.19
  Diameter of zone of inhibition: 32 mm
[19]; Quantity n 0.019
  Diameter of zone of inhibition: r
[19]; Quantity n 0.1
  Diameter of zone of inhibition: r
[19]; Quantity n 0.19
  Diameter of zone of inhibition: 12 mm
[20]; Quantity n 0.019
  Diameter of zone of inhibition: r
[20]; Quantity n 0.1
  Diameter of zone of inhibition: r
[20]; Quantity n 0.19
  Diameter of zone of inhibition: r
